Consider three substances from patent US6869930B1, “Acylated insulin” (priority 1993, dated 2005).

Data set [1] can be described thus: Lipophilicity relative to human insulin, k′rel, by isocratic RP-HPLC (LiChrosorb RP18). It is filed as physicochemical. As to conditions: pH 7.3. How it is done: The elution was monitored by following the UV absorption of the eluate at 214 nm. Void time, t0, was found by injecting 0.1 mM sodium nitrate.
For a further data set, the system named is rabbits. In words: Single day retardation test: prolongation of the blood glucose lowering effect in rabbits. The class given is in vivo.

Protocol for rabbits: The degree of prolongation of the blood glucose lowering effect was studied in rabbits. Each insulin derivative was tested by subcutaneous injection of 12 nmol thereof in, each of six rabbits in the single day retardation test. Blood sampling for glucose analysis was performed before injection and at 1, 2, 4 and 6 hours after injection. The glucose values found are expressed as percent of initial values.

For “Lys^B29(N^ε-[N^α-tetradecanoyl Aad(−)-OH]) des(B30) Human Insulin [Example 42]”, in data set [1], the “lipophilicity relative to human insulin, k′rel” value came out at 21.

Consider “Lys^B29(N^ε-[N^α-tetradecanoyl-γ-carboxy-Glu-]) des(B30) Human Insulin [Example 43]”, for which the “lipophilicity relative to human insulin, k′rel” value in data set [1] was 10.

With “N^εB29-lithocholoyl insulin [N^εB29-lithocholoyl insulin (Zn-free)]”, the “Relative Lipophilicity” value in data set [1] came to 51.6. Further, the “Blood glucose, % of initial 1 h” value with rabbits (12 nmol subcutaneous, 1 h after injection, 3 Zn^2+/insulin hexamer except where Zn-free) was 98.3 % of initial. Also, in the data set on rabbits (12 nmol subcutaneous, 2 h after injection, 3 Zn^2+/insulin hexamer except where Zn-free), the “Blood glucose, % of initial 2 h” value is listed as 92.3 % of initial. Besides, the “Blood glucose, % of initial 4 h” value in the data set on rabbits (12 nmol subcutaneous, 4 h after injection, 3 Zn^2+/insulin hexamer except where Zn-free) is listed as 100.5 % of initial. The “Blood glucose, % of initial 6 h” value with rabbits (12 nmol subcutaneous, 6 h after injection, 3 Zn^2+/insulin hexamer except where Zn-free) was 93.4 % of initial. Also, the Index of protraction in the data set on rabbits (calculated from blood glucose values, scaled: 100 = bovine ultralente insulin, 0 = Actrapid insulin) was 115.
